The values that follow come from US20240218022A1, “ANTI-VISTA MACROCYCLIC PEPTIDES AND COMPOSITIONS” (BRISTOL-MYERS SQUIBB COMPANY, priority 2022, published 2024).

pIC50: −log10 of the molar value. Starred links: 1 amine or outer side, 2 acyl side, 3 side chain; linkers in the order of their positions; H or OH if unused. Positions of bridges follow the written chain, without caps; N, C: chain ends. Non-standard residues stand in square brackets, D forms with d. Residues, ends and D or L forms follow the SMILES beside them. Phe(3-Me) = Cc1cccc(C[C@H](N)C(=O)O)c1; 2Nal = N[C@@H](Cc1ccc2ccccc2c1)C(=O)O; βAsp = O=C(O)[C@H](CC(=O)[*:2])N[*:1]; NMeL = CN[C@@H](CC(C)C)C(=O)O; Ahp(2) = CCCCC[C@H](N)C(=O)O; NMeNle = CCCC[C@H](NC)C(=O)O; Tle = CC(C)(C)[C@H](N)C(=O)O; NMeS = CN[C@@H](CO)C(=O)O; NHexGly = CCCCCCNCC(=O)O; Nle = CCCC[C@H](N)C(=O)O; Aun = NCCCCCCCCCCC(=O)O; AEEA = NCCOCCOCC(=O)O

The test concerns the target T1, mouse VISTA (mVISTA) (Mus musculus, UniProt Q9D659).
T1 construct: expressed in transfected cells; host or cells: Human embryonic kidney 293T cells
T1 sequence (Q9D659 33-308): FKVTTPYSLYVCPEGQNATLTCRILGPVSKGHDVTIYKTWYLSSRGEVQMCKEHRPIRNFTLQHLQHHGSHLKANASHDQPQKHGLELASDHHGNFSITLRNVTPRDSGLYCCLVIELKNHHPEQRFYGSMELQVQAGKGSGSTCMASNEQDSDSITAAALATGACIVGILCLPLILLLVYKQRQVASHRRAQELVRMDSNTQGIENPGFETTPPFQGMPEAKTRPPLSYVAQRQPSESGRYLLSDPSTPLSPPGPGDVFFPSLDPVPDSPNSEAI
Nature of the test: Cell-Based Binding High-Content Assay For mVISTA (HC CBA mVISTA). The settings on record: cell-based binding high-content assay, mVISTA; read-out: HC CBA miPr ISTA IC50. In outline:
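This high-content binding assay uses HEK293T cells expressing murine VISTA, measuring displacement of 2 nM biotinylated peptide by fluorescent streptavidin imaging. IC50 values come from four-parameter logistic fitting.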
Turning to `CCCCCCN1CC(=O)N[C@@H](Cc2ccc(O)cc2)C(=O)N[C@@H](CCCC)C(=O)N[C@@H](CC(N)=O)C(=O)N[C@@H](CCCNC(=N)N)C(=O)N(C)[C@@H](CCCC)C(=O)N[C@@H](CCCCC)C(=O)N2CCC[C@H]2C(=O)N[C@@H](C(C)(C)C)C(=O)N[C@@H](CO)C(=O)N[C@H](C(=O)N[C@@H](CC(=O)NCCOCCOCC(=O)N[C@@H](CC(=O)O)C(=O)NCCOCCOCC(=O)NCCCCCCCCCCC(=O)O)C(=O)O)CSCC(=O)N[C@@H](Cc2ccc3ccccc3c2)C(=O)N[C@@H](Cc2ccc(O)cc2)C(=O)N[C@@H](CC(=O)O)C1=O` [compound 2023] ({CH2CO}-[2Nal]YD[NHexGly]Y[Nle]NR[NMeNle][Ahp(2)]P[Tle]SC[βAsp][AEEA]D[AEEA][Aun]-OH; thioether N-14), the pIC50 (usually the IC50 on a negative log10 scale, so that one unit is a factor of ten) was 7.39.
For `CCCCCCN1CC(=O)N[C@@H](Cc2ccc(O)cc2)C(=O)N[C@@H](CCCC)C(=O)N[C@@H](CC(N)=O)C(=O)N[C@@H](CCCNC(=N)N)C(=O)N(C)[C@@H](CCCC)C(=O)N[C@@H](CCCCC)C(=O)N2CCC[C@H]2C(=O)N[C@@H](C(C)(C)C)C(=O)N[C@@H](CO)C(=O)N[C@H](C(=O)N[C@@H](CC(=O)NCCOCCOCC(=O)N[C@@H](CC(=O)O)C(=O)NCCOCCOCC(=O)NCCCCCCCCCCC(=O)O)C(=O)O)CSCC(=O)N[C@@H](Cc2cccc(C)c2)C(=O)N[C@@H](Cc2c[nH]c3ccccc23)C(=O)N[C@@H](CC(=O)O)C1=O` [compound 2024] ({CH2CO}-[Phe(3-Me)]WD[NHexGly]Y[Nle]NR[NMeNle][Ahp(2)]P[Tle]SC[βAsp][AEEA]D[AEEA][Aun]-OH; thioether N-14) the value was 7.39; for `CCCCCCN1CC(=O)N[C@@H](Cc2ccc(O)cc2)C(=O)N[C@@H](CC(C)C)C(=O)N[C@@H](CC(N)=O)C(=O)N[C@@H](CCCNC(=N)N)C(=O)N(C)[C@@H](CC(C)C)C(=O)N[C@@H](CCCCC)C(=O)N2CCC[C@H]2C(=O)N[C@@H](C(C)(C)C)C(=O)N[C@@H](CC(=O)O)C(=O)N[C@H](C(=O)N[C@@H](CC(=O)NCCOCCOCC(=O)N[C@@H](CC(=O)O)C(=O)NCCOCCOCC(=O)NCCCCCCCCCCC(=O)O)C(=O)O)CSCC(=O)N[C@@H](Cc2ccccc2)C(=O)N[C@@H](Cc2ccc(O)cc2)C(=O)N[C@@H](CC(=O)O)C1=O` [compound 2026] ({CH2CO}-FYD[NHexGly]YLNR[NMeL][Ahp(2)]P[Tle]DC[βAsp][AEEA]D[AEEA][Aun]-OH; thioether N-14), 7.76.
In the case of `CCCCCCN1CC(=O)N[C@@H](Cc2ccc(O)cc2)C(=O)N[C@@H](CC(C)C)C(=O)N[C@@H](CC(N)=O)C(=O)N[C@@H](CCCNC(=N)N)C(=O)N(C)[C@@H](CCCC)C(=O)N[C@@H](CCCCC)C(=O)N2CCC[C@H]2C(=O)N[C@@H](C(C)(C)C)C(=O)N[C@@H](CC(=O)O)C(=O)N[C@H](C(=O)N[C@@H](CC(=O)NCCOCCOCC(=O)N[C@@H](CC(=O)O)C(=O)NCCOCCOCC(=O)NCCCCCCCCCCC(=O)O)C(=O)O)CSCC(=O)N[C@@H](Cc2ccccc2)C(=O)N[C@@H](Cc2c[nH]c3ccccc23)C(=O)N[C@@H](CC(=O)O)C1=O` [compound 2027] ({CH2CO}-FWD[NHexGly]YLNR[NMeNle][Ahp(2)]P[Tle]DC[βAsp][AEEA]D[AEEA][Aun]-OH; thioether N-14), the negative logarithm of the IC50 (pIC50) is 7.56.
Then `CCCCCCN1CC(=O)N[C@@H](Cc2ccc(O)cc2)C(=O)N[C@@H](CC(C)C)C(=O)N[C@@H](CC(N)=O)C(=O)N[C@@H](CCCNC(=N)N)C(=O)N(C)[C@@H](CCCC)C(=O)N[C@@H](CCCCC)C(=O)N2CCC[C@H]2C(=O)N[C@@H](C(C)(C)C)C(=O)N[C@@H](CC(=O)O)C(=O)N[C@H](C(=O)N[C@@H](CC(=O)NCCOCCOCC(=O)N[C@@H](CC(=O)O)C(=O)NCCOCCOCC(=O)NCCCCCCCCCCC(=O)O)C(=O)O)CSCC(=O)N[C@@H](Cc2ccccc2)C(=O)N[C@@H](Cc2ccc(O)cc2)C(=O)N[C@@H](CC(=O)O)C1=O` [compound 2029] ({CH2CO}-FYD[NHexGly]YLNR[NMeNle][Ahp(2)]P[Tle]DC[βAsp][AEEA]D[AEEA][Aun]-OH; thioether N-14), with 7.76; and `CCCCCCN1CC(=O)N[C@@H](Cc2ccc(O)cc2)C(=O)N[C@@H](CC(C)C)C(=O)N[C@@H](CC(N)=O)C(=O)N[C@@H](CCCNC(=N)N)C(=O)N(C)[C@@H](CCCC)C(=O)N[C@@H](CCCCC)C(=O)N2CCC[C@H]2C(=O)N[C@@H](C(C)(C)C)C(=O)N[C@@H](CO)C(=O)N[C@H](C(=O)N[C@@H](CC(=O)NCCOCCOCC(=O)N[C@@H](CC(=O)O)C(=O)NCCOCCOCC(=O)NCCCCCCCCCCC(=O)O)C(=O)O)CSCC(=O)N[C@@H](Cc2ccccc2)C(=O)N[C@@H](Cc2ccc(O)cc2)C(=O)N[C@@H](CC(=O)O)C1=O` [compound 2030] ({CH2CO}-FYD[NHexGly]YLNR[NMeNle][Ahp(2)]P[Tle]SC[βAsp][AEEA]D[AEEA][Aun]-OH; thioether N-14), with 7.64; and `CCCCCCN1CC(=O)N[C@@H](Cc2ccc(O)cc2)C(=O)N[C@@H](CC(C)C)C(=O)N[C@@H](CC(N)=O)C(=O)N[C@@H](CCCNC(=N)N)C(=O)N(C)[C@@H](CC(C)C)C(=O)N[C@@H](CCCCC)C(=O)N2CCC[C@H]2C(=O)N[C@@H](C(C)(C)C)C(=O)N[C@@H](CO)C(=O)N[C@H](C(=O)N[C@@H](CC(=O)NCCOCCOCC(=O)N[C@@H](CC(=O)O)C(=O)NCCOCCOCC(=O)NCCCCCCCCCCC(=O)O)C(=O)O)CSCC(=O)N[C@@H](Cc2ccccc2)C(=O)N[C@@H](Cc2ccc(O)cc2)C(=O)N[C@@H](CC(=O)O)C1=O` [compound 2031] ({CH2CO}-FYD[NHexGly]YLNR[NMeL][Ahp(2)]P[Tle]SC[βAsp][AEEA]D[AEEA][Aun]-OH; thioether N-14), with 7.84.
Then `CCCCCCN1CC(=O)N[C@@H](Cc2ccc(O)cc2)C(=O)N[C@@H](CC(C)C)C(=O)N[C@@H](CC(N)=O)C(=O)N[C@@H](CCCNC(=N)N)C(=O)N(C)[C@@H](CC(C)C)C(=O)N[C@@H](CCCCC)C(=O)N2CCC[C@H]2C(=O)N[C@@H](C(C)(C)C)C(=O)N[C@@H](CC(=O)O)C(=O)N[C@H](C(=O)N[C@@H](CC(=O)NCCOCCOCC(=O)N[C@@H](CC(=O)O)C(=O)NCCOCCOCC(=O)NCCCCCCCCCCC(=O)O)C(=O)O)CSCC(=O)N[C@@H](Cc2ccccc2)C(=O)N[C@@H](Cc2c[nH]c3ccccc23)C(=O)N[C@@H](CC(=O)O)C1=O` [compound 2032] ({CH2CO}-FWD[NHexGly]YLNR[NMeL][Ahp(2)]P[Tle]DC[βAsp][AEEA]D[AEEA][Aun]-OH; thioether N-14), with 7.55; and `CCCCCCN1CC(=O)N[C@@H](Cc2ccc(O)cc2)C(=O)N[C@@H](CC(C)C)C(=O)N[C@@H](CC(N)=O)C(=O)N[C@@H](CCCNC(=N)N)C(=O)N(C)[C@@H](CO)C(=O)N[C@@H](CCCCC)C(=O)N2CCC[C@H]2C(=O)N[C@@H](C(C)(C)C)C(=O)N[C@@H](CO)C(=O)N[C@H](C(=O)N[C@@H](CC(=O)NCCOCCOCC(=O)N[C@@H](CC(=O)O)C(=O)NCCOCCOCC(=O)NCCCCCCCCCCC(=O)O)C(=O)O)CSCC(=O)N[C@@H](Cc2ccccc2)C(=O)N[C@@H](Cc2ccc(O)cc2)C(=O)N[C@@H](CC(=O)O)C1=O` [compound 2033] ({CH2CO}-FYD[NHexGly]YLNR[NMeS][Ahp(2)]P[Tle]SC[βAsp][AEEA]D[AEEA][Aun]-OH; thioether N-14), with 7.74.
